What was measured:
Type in all cases: toxicity, cell-based
U2OS = experiment: Incucyte cell viability with U2OS; conditions: human, 10 µM, compound concentration 10 uM
HEK-293T = experiment: Incucyte cell viability with HEK293T; conditions: human, 10 µM, compound concentration 10 uM
Fibroblast = experiment: Incucyte cell viability with human fibroblast; conditions: 10 µM, compound concentration 10 uM
[1] = 6 h, replicate number 1, timepoint 6 hours
[2] = 12 h, replicate number 1, timepoint 12 hours
[3] = 18 h, replicate number 1, timepoint 18 hours
[4] = 18 h, replicate number 2, timepoint 18 hours
[5] = 24 h, replicate number 1, timepoint 24 hours
[6] = 24 h, replicate number 2, timepoint 24 hours
[7] = 0 h, replicate number 2, timepoint 0 hours
[8] = 0 h, replicate number 1, timepoint 0 hours
[9] = 6 h, replicate number 2, timepoint 6 hours
[10] = 12 h, replicate number 2, timepoint 12 hours
Note: filed as whole numbers so only -1 and 0 and 1 occur.

Row | SMILES | Growth Rate (U2OS; [1]) | Growth Rate (U2OS; [2]) | Growth Rate (U2OS; [3]) | Growth Rate (U2OS; [4]) | Growth Rate (U2OS; [5]) | Growth Rate (U2OS; [6]) | Growth Rate (HEK-293T; [7]) | Growth Rate (HEK-293T; [1]) | Growth Rate (HEK-293T; [2]) | Growth Rate (HEK-293T; [3]) | Growth Rate (HEK-293T; [5]) | Growth Rate (Fibroblast; [8]) | Growth Rate (Fibroblast; [7]) | Growth Rate (Fibroblast; [9]) | Growth Rate (Fibroblast; [10]) | Growth Rate (U2OS; [8]) | Growth Rate (U2OS; [9]) | Growth Rate (Fibroblast; [2]) | Growth Rate (Fibroblast; [3]) | Growth Rate (Fibroblast; [5]) | other results
1 | COc1cc(N2CCC(O)CC2)ccc1Nc1cc(Nc2ccccc2S(=O)(=O)C(C)C)c2cc[nH]c2n1 | 1 | 1 | 1 | 0 | 1 | 0 | 1 | 0 | 0 | 0 | 0 | 1 | 0 | 1 | 1 |  |  |  |  |  | Growth Rate (Fibroblast; [6]): 1
2 | COc1ccc(Br)cc1S(=O)(=O)NC(=O)/C=C/c1ccccc1Cc1ccc2ccccc2c1 |  |  | 1 |  | 1 | 0 | 0 | 0 | 0 | 0 | 0 | 1 | 0 | 1 |  | 0 | 0 | 1 | 0 | 0 | Growth Rate (U2OS; [10]): 1; Growth Rate (HEK-293T; [9]): 1; Growth Rate (HEK-293T; [10]): 1; Growth Rate (HEK-293T; [4]): 1; Growth Rate (HEK-293T; [6]): 1; Growth Rate (Fibroblast; [1]): 0; Growth Rate (Fibroblast; [4]): 1; Growth Rate (Fibroblast; [6]): 1
3 | COc1ccc(CCc2nc3cc(-c4c(C)noc4C)ccc3n2C[C@H](C)N2CCOCC2)cc1Cl | 0 | 1 | 1 |  | 1 |  | 1 | 0 | 1 | 0 | 0 | 0 |  | 0 |  | 1 |  | 1 | 1 | 1 | Growth Rate (U2OS; [7]): 0; Growth Rate (HEK-293T; [9]): 1; Growth Rate (HEK-293T; [10]): 0; Growth Rate (HEK-293T; [4]): 1; Growth Rate (Fibroblast; [1]): 1
4 | CN1CCN(c2ccc(-c3cccc(CN4CCOCC4)c3)cc2NC(=O)c2c[nH]c(=O)cc2C(F)(F)F)CC1 | 1 | 0 | 0 | 1 | 1 | 0 | 1 | 0 | 0 | 1 | 1 |  | 1 | 0 | 0 | 0 | 0 | 1 | 1 | 1 | 
5 | Cl.O=C(Cc1ccc(Cl)c(Cl)c1)N1CCCC[C@H]1CN1CCCC1 |  | 1 | 1 |  | 1 |  | 0 | 0 | 0 | 0 | 0 | 0 | 1 |  |  | 0 | 1 |  |  |  | Growth Rate (HEK-293T; [4]): 1
6 | CC(C)(C)c1ccc(C(=O)Nc2cn3cc(-n4ccnc4)ccc3n2)cc1.Cl.Cl | 1 | 1 | 1 |  | 1 |  | 1 | 0 | 0 | 0 | 0 | 0 |  |  |  | 1 |  | 1 | 1 | 1 | Growth Rate (U2OS; [7]): 0
7 | COc1ccc2c(c1)O[C@H](c1ccc(OC)c(OC)c1)C[C@@H]2NC(=O)C1(c2ccc3c(c2)OC(F)(F)O3)CC1 [A-1596584] |  | 1 | 1 | 0 | 1 |  | 0 | 0 | 0 | 0 | 0 | 0 |  |  |  | 0 | 0 | 1 | 1 | 1 | Growth Rate (U2OS; [10]): 0; Growth Rate (HEK-293T; [8]): 1; Growth Rate (Fibroblast; [4]): 0; Growth Rate (Fibroblast; [6]): 0
8 | COc1ccc2c(c1)O[C@@H](c1ccc(OC)c(OC)c1)C[C@H]2NC(=O)C1(c2ccc3c(c2)OC(F)(F)O3)CC1 [A-1596586] |  | 1 | 1 |  | 1 |  | 0 | 0 | 0 | 0 | 0 | 0 |  |  |  | 0 |  |  | 1 | 1 | Growth Rate (HEK-293T; [8]): 1
9 | O=C(N1CCS(=O)(=O)CC1)N1C[C@H](c2ccc(OC(F)(F)F)cc2)C[C@H](c2nc(C3CC3)no2)C1 [BAY-386] | 0 | 0 | 0 | 1 | 0 | 1 |  | 1 | 0 | 0 | 0 | 0 |  | 0 | 0 |  | 1 |  |  | 1 | Growth Rate (U2OS; [7]): 0; Growth Rate (U2OS; [10]): 1; Growth Rate (HEK-293T; [8]): 0; Growth Rate (HEK-293T; [10]): 1; Growth Rate (Fibroblast; [4]): 0; Growth Rate (Fibroblast; [6]): 0
10 | NS(=O)(=O)c1cc(NC(=O)Cc2ccccc2)ccc1Oc1cccc(Cl)c1 [BAY-1797] | 0 | 1 | 0 | 1 | 0 | 1 |  | 0 | 0 | 0 | 0 | 0 |  |  | 1 |  |  |  |  | 1 | Growth Rate (U2OS; [10]): 0; Growth Rate (HEK-293T; [8]): 0; Growth Rate (HEK-293T; [9]): 1; Growth Rate (HEK-293T; [10]): 1; Growth Rate (Fibroblast; [4]): 1

Reference: ChEMBL document CHEMBL4689842, “EUbOPEN Chemogenomics Library wave 1” (2021)
